In one data set the test system is human total EbB2/Her2. As to the kind of experiment: HER2 degradation assay (ELISA) in BT474 cells. Format: cell-based. To be noted: BT-474, 16 hrs, read-out: Her2 Degradation IC50 Abs IC50. The method, then: BT474 (breast cancer) cells were plated at 12,000 cells per well and incubated for 20-24 hrs at 37° C. at 5% CO2. Post cell incubation, compounds were reconstituted in DMSO to a stock concentration of 5 mM. A compound plate was then prepared containing a 10 point dilution in DMSO. 2 uL of these dilutions were then added to the cells for a final working concentration of 5 uM to 0.0003 uM. Compounds and cells were incubated for 16 hrs. Media was then removed, cells washed, lysed, and analyzed for human total EbB2/Her2 levels by ELISA.

The subject of another data set is PARP. As to the kind of experiment: PARP inhibiting activity (FIG. 8A). Type of data set: biochemical. To be noted: in words. The source says: The activity of the respective payload is blocked until the linker moiety gets cleaved in the tumor and releases active unblocked payload. Through the HSP90 platform, toxicity is mitigated by masking the payload's active site until it can be delivered to the tumor.
FIG. 8A compares the activity of Conjugate 45 and its payload (talazoparib). FIG. 8B compares the activity of Conjugate 46 and its payload (ulixertinib). FIG. 8C compares the activity of Conjugate 47 and its payload TAK-733. The data further support that attaching a payload to a HSP90 binding ligand blocks the target activity of the payload. The HSP90 bindings of the HSP90 ligands are not affected.

For a further data set, the target named is T1, HSP90α (Homo sapiens, UniProt P07900).
T1 construct: purchased
As to the kind of experiment: HSP90 binding, HSP90α Assay Kit (fluorescence polarization, labeled geldanamycin competition). The procedure: The bindings of the conjugates to HSP90 were studied with the HSP90α Assay Kit. The HSP90α Assay Kit is designed for identification of HSP90α inhibitors using fluorescence polarization. The assay is based on the competition of fluorescently labeled geldanamycin for binding to purified recombinant HSP90α. The key to the HSP90α Assay Kit is the fluorescently labeled geldanamycin. The fluorescently labeled geldanamycin is incubated with a sample containing HSP90α enzyme to produce a change in fluorescent polarization that can then be measured using a fluorescence reader.

Another data set has as its target T2, topoisomerase-I (Homo sapiens, UniProt P11387).
T2 sequence (P11387 1-765): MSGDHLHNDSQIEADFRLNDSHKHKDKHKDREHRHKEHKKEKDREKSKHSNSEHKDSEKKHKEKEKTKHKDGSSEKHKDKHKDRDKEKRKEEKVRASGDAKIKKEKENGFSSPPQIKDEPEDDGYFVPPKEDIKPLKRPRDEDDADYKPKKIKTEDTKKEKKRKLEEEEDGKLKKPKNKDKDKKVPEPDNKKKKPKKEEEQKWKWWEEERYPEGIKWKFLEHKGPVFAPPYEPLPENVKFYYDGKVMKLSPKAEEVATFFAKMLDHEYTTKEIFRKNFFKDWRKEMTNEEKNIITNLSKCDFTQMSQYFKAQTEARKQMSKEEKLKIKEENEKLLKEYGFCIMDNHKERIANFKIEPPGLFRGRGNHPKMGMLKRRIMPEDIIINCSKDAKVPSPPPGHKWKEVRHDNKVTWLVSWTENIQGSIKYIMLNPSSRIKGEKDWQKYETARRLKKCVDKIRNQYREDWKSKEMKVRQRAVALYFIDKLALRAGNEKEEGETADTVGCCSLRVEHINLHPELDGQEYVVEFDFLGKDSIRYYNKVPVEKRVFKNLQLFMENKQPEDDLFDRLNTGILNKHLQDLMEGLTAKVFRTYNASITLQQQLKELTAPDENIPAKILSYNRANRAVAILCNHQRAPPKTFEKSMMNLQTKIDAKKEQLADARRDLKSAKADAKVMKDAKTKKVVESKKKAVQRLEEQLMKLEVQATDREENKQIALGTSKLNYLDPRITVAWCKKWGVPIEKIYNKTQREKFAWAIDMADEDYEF
Description: DNA damage / topoisomerase activity (FIG. 9). To be noted: FIG. 9, in words. Format: biochemical. The source says:
In one further study, DNA damage caused by Conjugate 48 (a conjugate comprising a ganetespib derivative and SN-38) was compared with the DNA damage caused by SN-38, the payload of Conjugate 48. SN-38 and its pre-drug, irinotecan (an analog of camptothecin), are inhibitors of topoisomerase-I and potently cause DNA damage that results in nicks in the DNA. […] The conjugation of SN-38 to the HSP90 ligand results in the masking of the activity of SN-38 until it can be selectively delivered to tumors where linker cleavage occurs.

In a further data set the test system is NCI-H460 cells. Description: NCI-H460 tumor cell cytotoxicity assay (CellTiter-Glo). Type of data set: cell-based. Particulars: Homo sapiens, NCI-H460, 48 h. The method, then: NCI-H460 cells (non-small cell lung cancer) were plated at 500 cells per well and incubated for 20-24 hrs at 37° C. at 5% CO2. Post cell incubation, compounds were reconstituted in DMSO to a stock concentration of 200 uM. A compound plate was then prepared containing a 10 point dilution in RPMI+10% FBS+0.25% DMSO. 5 uL of the dilution was then added for a final working concentration range of 10 uM to 0.0005 uM. Compounds and cells were then incubated for 48 hrs. Cells were then analyzed by CellTiter-Glo for ATP levels and percent inhibition calculated.

The format of data set [1] is in vivo, mice. To be noted: LS174t xenograft, in words. The method, then: Accumulation and retention of Conjugate 38 was tested in this tumor xenograft model.
Data set [2] deals with LS174t colon tumor xenograft. Description: LS174t colon tumor xenograft model, efficacy. Type of data set: in vivo, mice. Particulars: FIG. 3A, in words.
Data set [3] is described as follows: Glucose levels post dosing in mice. Type of data set: in vivo. Particulars: FIG. 7, in words. An excerpt: In an in vivo study in mice, glucose levels were monitored post PI3K inhibitor (Copanlisib) and Conjugate 38 dosing. […] Therefore, conjugating a PI3K enzyme inhibitor payload to a HSP90 targeting ligand reduced the normal tissue activity of glucose increase in mice.

Where [4] appears, read: n = 1, read-out: H460 in vitro cytotoxicity.
Where [5] appears, read: n = 2, read-out: H460 in vitro cytotoxicity.

Like-named read-outs stand apart in the source and are kept apart here.

Turning to `CCNC(=O)c1nnc(-c2cc(C(C)C)c(O)cc2O)n1-c1ccc(CN2CCN(C(=O)Oc3ccc(OC(=O)N4CCN(CCCOc5ccc6c(c5OC)N=C(NC(=O)c5cnc(N)nc5)N5CCN=C65)CC4)cc3)CC2)cc1` [Compound 37], in the data set with human total EbB2/Her2, the IC50 is 119 nM.
For the molecule `CC(C)c1cc(-c2nnc(O)n2-c2ccc(CN3CCN(CCC(C)(C)SS[C@H](C)COC(=O)N(CCN(C)C)Cn4nc5c6c(cc(F)cc6c4=O)N[C@H](c4ccc(F)cc4)[C@H]5c4ncnn4C)CC3)cc2)c(O)cc1O` [Conjugate 45], the “PARP inhibiting activity compared with payload (talazoparib)” value in the data set on PARP is listed as “lower than its payload”.
Take `CCNC(=O)c1nnc(-c2cc(C(C)C)c(O)cc2O)n1-c1ccc(C(=O)N2CCN(c3ccc(OC(=O)N4CCN(CCCOc5ccc6c(c5OC)N=C(NC(=O)c5cnc(N)nc5)N5CCN=C65)CC4)cc3)CC2)cc1` [Compound 29]: the IC50 in the data set with human total EbB2/Her2 came out at 59 nM. Further, at HSP90α (read-out: HSP90 Binding Kd), the dissociation constant Kd was determined as 1.03 nM.
Take `CCNC(=O)c1nnc(-c2cc(C(C)C)c(O)cc2O)n1-c1ccc(CN2CCC(C(=O)N3CCN(c4ccc(OC(=O)N5CCN(CCCOc6ccc7c(c6OC)N=C(NC(=O)c6cnc(N)nc6)N6CCN=C76)CC5)cc4)CC3)CC2)cc1` [Compound 31]: the IC50 with human total EbB2/Her2 was 103 nM. Further, the Kd at HSP90α (read-out: HSP90 Binding Kd) came out at 1.38 nM.
For the molecule `CCc1c2c(nc3ccc(OC(=O)N4CCC(N5CCCCC5)CC4)cc13)-c1cc3c(c(=O)n1C2)COC(=O)[C@]3(O)CC` [irinotecan], the DNA damage result at topoisomerase-I is listed as “moderate level of DNA damaging activity”.
Regarding `COc1c(OCCCN2CCN(C(=O)Oc3ccc(CC(=O)N4CCC(CCn5ccc6cc(-n7c(O)nnc7-c7cc(C(C)C)c(O)cc7O)ccc65)CC4)cc3)CC2)ccc2c1N=C(NC(=O)c1cnc(N)nc1)N1CCN=C21` [Compound 40], the IC50 in the data set with NCI-H460 cells (setting [4]) amounted to 247 nM; in the data set with NCI-H460 cells (setting [5]), 56 nM.
On to `CCNC(=O)c1nnc(-c2cc(C(C)C)c(O)cc2O)n1-c1ccc(CN2CCN(C(=O)Cc3ccc(CC(=O)N(C)CCCOc4ccc5c(c4OC)N=C(NC(=O)c4cnc(N)nc4)N4CCN=C54)cc3)CC2)cc1` [Compound 43], for which the IC50 in the data set on NCI-H460 cells (setting [4]) was 42 nM; in the data set with NCI-H460 cells (setting [5]), 31 nM.
For `COc1c(OCCCN2CCOCC2)ccc2c1N=C(NC(=O)c1cnc(N)nc1)N1CCN=C21` [Copanlisib, reference compound], the tumor retention time result in data set [1] is “much shorter tumor retention time”. For the same molecule, the “efficacy (tumor growth inhibition) in LS174t xenograft” value in data set [2] was “lack of efficacy”. Also, the “glucose concentration after dosing” value in data set [3] is on record as “increase in glucose levels”.
Take `CCNC(=O)c1nnc(-c2cc(C(C)C)c(O)cc2O)n1-c1ccc(C(=O)NCCc2ccc(OC(=O)N(CCCOc3ccc4c(c3OC)N=C(NC(=O)c3cnc(N)nc3)N3CCN=C43)C(C)C)cc2)cc1` [Compound 42]: the IC50 turned out to be 135 nM in the data set on NCI-H460 cells (setting [4]) and 147 nM in the data set on NCI-H460 cells (setting [5]).
For the molecule `CCNC(=O)c1nnc(-c2cc(C(C)C)c(O)cc2O)n1-c1ccc(N(C)C2CCN(C(=O)CCC(=O)OC[C@H](O)Cn3cnc4c(c(Nc5ccc(I)cc5F)c(F)c(=O)n4C)c3=O)CC2)cc1` [Compound 47], the Kd on HSP90α (read-out: HSP90 KD) amounted to 1.2 nM.
Turning to `CCNC(=O)c1nnc(-c2cc(C(C)C)c(O)cc2O)n1-c1ccc(C(=O)NCCc2ccc(OC(=O)N(C)CCCOc3ccc4c(c3OC)N=C(NC(=O)c3cnc(N)nc3)N3CCN=C43)cc2)cc1` [Compound 44], the IC50 in the data set on NCI-H460 cells (setting [4]) amounted to 527 nM; in the data set on NCI-H460 cells (setting [5]), 325 nM.
Regarding `CC(C)c1cc(-c2nnc(O)n2-c2ccc3c(ccn3C)c2)c(O)cc1O` [ganetespib, reference compound], the DNA damage entry on topoisomerase-I was “none”. For the same molecule, the “efficacy (tumor growth inhibition) in LS174t xenograft” value in data set [2] is given as “lack of efficacy”.
In the case of `CCNC(=O)c1nnc(-c2cc(C(C)C)c(O)cc2O)n1-c1ccc(C(=O)N2CCN(Cc3ccc(OC(=O)N4CCN(CCCOc5ccc6c(c5OC)N=C(NC(=O)c5cnc(N)nc5)N5CCN=C65)CC4)cc3)CC2)cc1` [Compound 32], the IC50 in the data set with human total EbB2/Her2 was 49 nM. The Kd at HSP90α (read-out: HSP90 Binding Kd) amounted to 0.86 nM.
Regarding `CCNC(=O)c1nnc(-c2cc(C(C)C)c(O)cc2O)n1-c1ccc(CN2CCN(C(=O)N3CCN(CCCOc4ccc5c(c4OC)N=C(NC(=O)c4cnc(N)nc4)N4CCN=C54)CC3)CC2)cc1` [Compound 36], the IC50 in the data set with human total EbB2/Her2 is 72 nM.
With `CCc1c2c(nc3ccc(OC(=O)N4CCC(CCn5ccc6cc(-n7c(O)nnc7-c7cc(C(C)C)c(O)cc7O)ccc65)CC4)cc13)-c1cc3c(c(=O)n1C2)COC(=O)[C@]3(O)CC` [Conjugate 48], on topoisomerase-I, the DNA damage entry is recorded as “negligible levels of DNA damage up to 100 uM”.
As to `CCNC(=O)c1nnc(-c2cc(C(C)C)c(O)cc2O)n1-c1ccc(C(=O)NCc2cc(C)c(OC(=O)N3CCN(CCCOc4ccc5c(c4OC)N=C(NC(=O)c4cnc(N)nc4)N4CCN=C54)CC3)c(C)c2)cc1` [Compound 34], in the data set on human total EbB2/Her2, the IC50 was found to be 141 nM. Moreover, the Kd at HSP90α (read-out: HSP90 Binding Kd) came to 1.37 nM.
As for `CC(C)c1cc(-c2nnc(O)n2-c2ccc(CN3CCN(CCC(C)(C)SS[C@H](C)COC(=O)N(CCN(C)C)Cn4nc5c6c(cc(F)cc6c4=O)N[C@H](c4ccc(F)cc4)[C@H]5c4ncnn4C)CC3)cc2)c(O)cc1O` [Compound 45], on HSP90α (read-out: HSP90 KD), the Kd stood at 0.33 nM.
Turning to `CCNC(=O)c1nnc(-c2cc(C(C)C)c(O)cc2O)n1-c1ccc(CN2CCC(C(=O)N3CCC(C(=O)OC[C@@H](NC(=O)c4cc(-c5cc(NC(C)C)ncc5Cl)c[nH]4)c4cccc(Cl)c4)CC3)CC2)c(F)c1` [Compound 46], the Kd on HSP90α (read-out: HSP90 KD) is 1 nM.
For `CCc1c2c(nc3ccc(O)cc13)-c1cc3c(c(=O)n1C2)COC(=O)[C@]3(O)CC` [SN-38], the DNA damage entry at topoisomerase-I is recorded as “DNA damage even at 1 uM”.
Turning to `CCNC(=O)c1nnc(-c2cc(C(C)C)c(O)cc2O)n1-c1ccc(CN2CCN(C(=O)c3ccc(OC(=O)N4CCN(CCCOc5ccc6c(c5OC)N=C(NC(=O)c5cnc(N)nc5)N5CCN=C65)CC4)cc3)CC2)cc1` [Compound 30], the IC50 in the data set with human total EbB2/Her2 is 38 nM. Besides, the Kd at HSP90α (read-out: HSP90 Binding Kd) amounted to 0.68 nM.
Turning to `COc1c(OCCCN2CCN(C(=O)Oc3ccc(CC(=O)N4CCN(Cc5ccc(-n6c(O)nnc6-c6cc(C(C)C)c(O)cc6O)cc5)CC4)cc3)CC2)ccc2c1N=C(NC(=O)c1cnc(N)nc1)N1CCN=C21` [Compound 39], the IC50 with human total EbB2/Her2 is over 20000 nM. Also, the Kd at HSP90α (read-out: HSP90 Binding Kd) is 1.8 nM.
The matching figures for `CCNC(=O)c1nnc(-c2cc(C(C)C)c(O)cc2O)n1-c1ccc(C(=O)N2CCN(Cc3ccc(OC(=O)N4CCN(CCCOc5ccc6c(c5OC)N=C(NC(=O)c5cnc(N)nc5)N5CCN=C65)CC4)c(C)c3)CC2)cc1` [Compound 33]: 41 nM and 1.03 nM.

Source of the values: patent US20210000966A1, “HSP90-TARGETING CONJUGATES AND FORMULATIONS THEREOF” (TARVEDA THERAPEUTICS, INC., priority 2017, published 2021).
